≈ marks a conversion by molar mass, not a printed value. Values belong to the compound of their own block, whether it stands above or below them.
Columns and labels:
[1] = Intrinsic dissolution rate; type: physicochemical; settings: for Intrinsic DR value: 37° C., 50 rpm, 720 min
Method: The intrinsic dissolution rate is very low for Form A of leflutrozole, even in the presence of sodium dodecyl sulfate (SDS). The rate was determined in 0.1 N hydrochloric acid (HCl) and 0.001 N HCl.

Kinetic solubility = type: physicochemical; settings: aqueous buffer, kinetic from dmso stock; room temperature, aqueous solutions between pH 1.0 and pH 6.8
CYP2C8 = target: T1, CYP2C8 (Homo sapiens, UniProt P10632); test: CYP inhibition, pooled human liver microsomes, probe substrates; type: in vitro ADME; settings: up to 100 μM
T1 construct: assessed by pooled human liver microsomes using enzyme selective probe substrates; from tissue; host or cells: pooled human liver microsomes
T1 sequence (P10632 1-490): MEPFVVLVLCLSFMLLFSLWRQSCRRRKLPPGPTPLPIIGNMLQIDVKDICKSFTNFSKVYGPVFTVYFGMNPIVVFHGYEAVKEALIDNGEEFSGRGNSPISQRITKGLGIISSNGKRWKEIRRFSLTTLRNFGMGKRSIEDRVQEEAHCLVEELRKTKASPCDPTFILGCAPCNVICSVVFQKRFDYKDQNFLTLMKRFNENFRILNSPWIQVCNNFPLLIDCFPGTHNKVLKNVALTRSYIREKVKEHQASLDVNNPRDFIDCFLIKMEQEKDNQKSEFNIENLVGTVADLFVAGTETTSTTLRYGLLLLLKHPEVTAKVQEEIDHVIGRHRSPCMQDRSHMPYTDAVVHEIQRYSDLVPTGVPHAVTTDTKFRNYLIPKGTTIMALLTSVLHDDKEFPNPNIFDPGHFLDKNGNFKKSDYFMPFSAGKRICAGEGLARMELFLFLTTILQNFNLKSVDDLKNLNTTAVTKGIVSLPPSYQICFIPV

[2] = Metabolic stability in rat liver microsomes; type: in vitro ADME
[3] = tested on: obese and overweight men with hypogonadism and low total motile sperm count; test: Extension of treatment to 48 total weeks; type: in vivo, human; settings: for serum testosterone change from baseline / serum testosterone level: 48-week period
Pharmacokinetics in rats = type: in vivo; settings: for AUC(0-inf) / half-life / AUC(0-t) / Cmax: 1 mg/kg; for AUC(0-t): AUC 0-24^1/48^2 h
CYP2E1 = target: T2, CYP2E1 (Homo sapiens, UniProt P05181); test: CYP inhibition, pooled human liver microsomes, probe substrates; type: in vitro ADME; settings: up to 100 μM
T2 construct: assessed by pooled human liver microsomes using enzyme selective probe substrates; from tissue; host or cells: pooled human liver microsomes
T2 sequence (P05181 whole entry): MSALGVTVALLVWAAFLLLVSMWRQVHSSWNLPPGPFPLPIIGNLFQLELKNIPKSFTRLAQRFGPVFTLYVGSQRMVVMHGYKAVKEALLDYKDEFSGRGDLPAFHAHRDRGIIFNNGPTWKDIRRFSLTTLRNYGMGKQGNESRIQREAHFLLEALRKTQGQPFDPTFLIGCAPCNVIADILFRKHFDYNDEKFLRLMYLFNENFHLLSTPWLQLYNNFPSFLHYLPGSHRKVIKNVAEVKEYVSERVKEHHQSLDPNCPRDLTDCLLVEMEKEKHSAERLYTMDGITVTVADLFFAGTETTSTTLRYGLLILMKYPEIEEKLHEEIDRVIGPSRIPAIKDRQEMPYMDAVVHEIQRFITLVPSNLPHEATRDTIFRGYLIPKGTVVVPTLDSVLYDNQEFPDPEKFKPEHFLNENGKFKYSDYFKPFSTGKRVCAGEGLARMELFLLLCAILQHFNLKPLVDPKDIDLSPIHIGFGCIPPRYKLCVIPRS

CYP1A2 = target: T3, CYP1A2 (Homo sapiens, UniProt P05177); test: as above; type: in vitro ADME; settings: up to 100 μM
T3 construct: assessed by pooled human liver microsomes using enzyme selective probe substrates; from tissue; host or cells: pooled human liver microsomes
T3 sequence (P05177 1-516): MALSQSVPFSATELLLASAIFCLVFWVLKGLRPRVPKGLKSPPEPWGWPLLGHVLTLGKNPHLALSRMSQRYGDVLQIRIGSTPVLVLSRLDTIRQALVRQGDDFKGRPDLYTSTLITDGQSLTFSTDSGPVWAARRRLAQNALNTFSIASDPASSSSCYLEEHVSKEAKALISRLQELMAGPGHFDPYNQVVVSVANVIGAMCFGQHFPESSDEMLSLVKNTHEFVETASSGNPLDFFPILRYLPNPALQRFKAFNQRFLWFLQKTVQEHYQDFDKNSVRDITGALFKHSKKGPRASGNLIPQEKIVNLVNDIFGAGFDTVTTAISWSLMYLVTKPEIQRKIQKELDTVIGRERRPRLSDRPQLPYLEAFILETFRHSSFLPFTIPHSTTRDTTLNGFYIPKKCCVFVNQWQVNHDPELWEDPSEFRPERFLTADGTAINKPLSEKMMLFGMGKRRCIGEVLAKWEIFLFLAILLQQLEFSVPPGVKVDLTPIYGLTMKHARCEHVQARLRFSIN

[4] = Metabolic stability in human liver microsomes; type: in vitro ADME
P-glycoprotein = P-glycoprotein (Homo sapiens, UniProt P08183); test: P-glycoprotein inhibition; type: in vitro ADME; settings: at concentrations above 200 μM
Chain of P-glycoprotein (P08183 whole entry): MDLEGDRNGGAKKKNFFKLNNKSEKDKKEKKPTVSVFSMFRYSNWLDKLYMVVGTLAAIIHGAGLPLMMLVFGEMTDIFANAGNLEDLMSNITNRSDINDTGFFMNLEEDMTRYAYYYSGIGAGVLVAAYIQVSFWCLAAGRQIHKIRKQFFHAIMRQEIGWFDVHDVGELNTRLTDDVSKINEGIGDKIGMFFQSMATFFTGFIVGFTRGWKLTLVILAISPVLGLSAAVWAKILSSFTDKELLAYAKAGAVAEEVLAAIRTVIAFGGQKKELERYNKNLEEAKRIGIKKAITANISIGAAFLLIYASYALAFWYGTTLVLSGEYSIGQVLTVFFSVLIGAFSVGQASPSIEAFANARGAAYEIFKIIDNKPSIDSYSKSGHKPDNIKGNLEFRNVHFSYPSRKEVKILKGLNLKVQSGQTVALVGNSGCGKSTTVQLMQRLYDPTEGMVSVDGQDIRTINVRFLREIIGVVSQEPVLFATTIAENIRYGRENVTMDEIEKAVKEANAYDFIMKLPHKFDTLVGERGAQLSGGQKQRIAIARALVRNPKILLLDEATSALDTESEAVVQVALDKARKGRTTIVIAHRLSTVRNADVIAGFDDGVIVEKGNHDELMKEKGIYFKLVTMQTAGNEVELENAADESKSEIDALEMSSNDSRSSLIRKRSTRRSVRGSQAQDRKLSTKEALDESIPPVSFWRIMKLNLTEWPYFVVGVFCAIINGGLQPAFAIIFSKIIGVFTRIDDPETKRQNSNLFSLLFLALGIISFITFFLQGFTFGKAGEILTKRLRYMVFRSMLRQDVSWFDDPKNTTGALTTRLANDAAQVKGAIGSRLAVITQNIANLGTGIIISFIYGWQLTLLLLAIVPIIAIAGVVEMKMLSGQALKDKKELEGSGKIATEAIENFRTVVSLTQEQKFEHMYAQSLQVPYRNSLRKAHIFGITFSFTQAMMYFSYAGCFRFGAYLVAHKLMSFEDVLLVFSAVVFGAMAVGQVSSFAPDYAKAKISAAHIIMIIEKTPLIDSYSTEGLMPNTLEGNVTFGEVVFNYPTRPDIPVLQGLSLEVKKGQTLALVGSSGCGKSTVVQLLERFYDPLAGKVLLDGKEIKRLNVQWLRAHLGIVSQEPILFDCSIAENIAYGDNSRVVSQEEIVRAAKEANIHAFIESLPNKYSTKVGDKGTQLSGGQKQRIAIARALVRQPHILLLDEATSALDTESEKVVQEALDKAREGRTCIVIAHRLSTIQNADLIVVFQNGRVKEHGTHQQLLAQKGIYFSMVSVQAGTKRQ

[5] = rat, in vivo, iv, 1 mg/kg i.v., PEG200-0.9% Saline-solution 40/60
[6] = rat, in vivo, po, 1 mg/kg p.o., PEG200-water-solution 40/60
[7] = rat, in vivo, po, 1 mg/kg p.o., Suspension 0.5% HPC

- Intrinsic DR value ([1]; HCl 0.001N + 1% SDS): 0.0167 mg/min/cm^2
- Intrinsic DR value ([1]; HCl 0.1N + 1% SDS): 0.0162 mg/min/cm^2
- intrinsic dissolution rate (in words) ([1]; even in the presence of sodium dodecyl sulfate): very low
- solubility kinetic (Kinetic solubility): ~0.0607 µg/mL (≈ 0.2 µM)
Structure (SMILES): N#Cc1ccc(C(F)(c2ccc(C#N)cc2)n2cncn2)cc1 [Form A leflutrozole, 4-[(4-cyanophenyl)-fluoro-(1,2,4-triazol-1-yl)methyl]benzonitrile]

- IC50 (CYP2C8): > 50 µM
- CLint scaled [2]: < 0.276 L/h/kg
- half-life [2]: > 5 h
- bone specific alkaline phosphatase ([3]; 0.1 mg treatment arm only): significant increase
- change in BMD for the hip or femoral neck ([3]; week 48): no significant change
- percentage decrease of lumbar BMD (DEXA) ([3]; week 48, any treatment group): ≥ −3%
- BAV 0-inf (Pharmacokinetics in rats; 1 mg/kg p.o., Suspension 0.5% HPC): ≥100%
- clearance (Pharmacokinetics in rats; [5]): 0.383 mL/min
- AUC(0-inf) (Pharmacokinetics in rats; [5]): 123 µM·h
- half-life (Pharmacokinetics in rats; rat, in vivo, iv, 1 mg/kg i.v., PEG200-0.9% Saline-solution 40/60, read-out: T1/2 (converted)): 33.1 h
- AUC(0-t) (Pharmacokinetics in rats; [5]): 79.4 µM·h
- AUC(0-inf) (Pharmacokinetics in rats; [6]): 143 µM·h
- Cmax (Pharmacokinetics in rats; [6]): 1.75 µM
- half-life (Pharmacokinetics in rats; rat, in vivo, po, 1 mg/kg p.o., PEG200-water-solution 40/60, read-out: T1/2 (converted)): 49.7 h
- AUC(0-inf) (Pharmacokinetics in rats; [7]): 245 µM·h
- Cmax (Pharmacokinetics in rats; [7]): 1.81 µM
- half-life (Pharmacokinetics in rats; rat, in vivo, po, 1 mg/kg p.o., Suspension 0.5% HPC, read-out: T1/2 (converted)): 101 h
- AUC(0-t) (Pharmacokinetics in rats; [6]): 70.2 µM·h
- AUC(0-t) (Pharmacokinetics in rats; [7]): 163 µM·h
- half-life (Pharmacokinetics in rats; rat, in vivo, po, read-out: half-life (converted)): 101 h
- IC50 (CYP2E1): > 50 µM
- IC50 (CYP1A2): > 50 µM
- half-life [4]: 3.35 h
- CLint scaled ([4]; read-out: intrinsic clearance (CLint)): 0.414 L/h/kg
- inhibition of P-glycoprotein (P-glycoprotein): not determined to be an inhibitor
Structure (SMILES): N#Cc1ccc(C(F)(c2ccc(C#N)cc2)n2cncn2)cc1 [leflutrozole, 4-[(4-cyanophenyl)-fluoro-(1,2,4-triazol-1-yl)methyl]benzonitrile]
- serum testosterone change from baseline ([3]; 0.1 mg): 243.0 ng/dL
- serum testosterone level ([3]; 0.1 mg): 494.9 ng/dL
- serum testosterone change from baseline ([3]; 0.3 mg): 290.6 ng/dL
- serum testosterone level ([3]; 0.3 mg): 549.7 ng/dL
- serum testosterone change from baseline ([3]; 1.0 mg): 376.2 ng/dL
- serum testosterone level ([3]; 1.0 mg): 595.1 ng/dL
- bone turnover markers (type I collagen C-telopeptides, procollagen-1 N-terminal propeptide, osteocalcin) ([3]; by week 48): increases in all leflutrozole treatment groups
- clinical meaning of reductions in BMD of the lumbar spine ([3]; week 48): did not indicate clinically meaningful osteopenia or osteoporosis
